Source: US11851406B2, “Positive allosteric modulators of the muscarinic acetylcholine receptor M1” (Vanderbilt University, priority 2018, dated 2023)

How the values were obtained:
human mAChR M1 [1] = target: T1, human mAChR M1 (Homo sapiens, UniProt P11229); assay: mAChR M1 cell-based functional assay (calcium mobilization), agonist activity upon compound addition alone; details: CHO-K1 cells expressing hM1; for EC50: calcium mobilization upon compound addition, no acetylcholine; for Emax: compound alone, relative to the maximum for acetylcholine
T1 sequence (P11229 1-460): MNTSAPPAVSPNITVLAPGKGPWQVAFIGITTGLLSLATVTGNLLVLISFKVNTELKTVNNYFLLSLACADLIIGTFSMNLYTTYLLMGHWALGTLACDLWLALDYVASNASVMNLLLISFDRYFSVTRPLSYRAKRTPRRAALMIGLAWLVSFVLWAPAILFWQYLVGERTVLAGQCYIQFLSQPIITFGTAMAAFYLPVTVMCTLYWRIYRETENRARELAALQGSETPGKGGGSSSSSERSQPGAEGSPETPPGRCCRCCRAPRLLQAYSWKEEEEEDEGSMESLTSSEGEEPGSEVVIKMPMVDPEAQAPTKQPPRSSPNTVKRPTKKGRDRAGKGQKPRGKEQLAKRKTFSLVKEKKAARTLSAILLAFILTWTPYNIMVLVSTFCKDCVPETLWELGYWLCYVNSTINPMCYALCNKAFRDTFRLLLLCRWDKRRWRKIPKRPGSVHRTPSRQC
Text: (§1) Chinese hamster ovary (CHO-K1) cells stably expressing rat (r)M1 were purchased from the American Type Culture Collection and cultured according to their indicated protocol. CHO cells stably expressing human (h)M2, hM3, and hM5 were described previously (Levey, et al., 1991); hM1 and hM4 cDNAs were purchased from Missouri S&T cDNA Resource; rM4 cDNA was provided by T. I. Bonner (National Institutes of Health, Bethesda, Md.). rM2 and rM3 were cloned from a rat brain cDNA library and sequence verified. hM1, rM2, rM3, hM4, and rM4 cDNAs were used to stably transfect CHO-K1 cells purchased from the American Type Culture Collection using Lipofectamine2000. To make stable rM2, hM2, rM3, hM4, and rM4 cell lines for use in calcium mobilization assays, these cells also were stably transfected with a chimeric G-protein (Gqi5) (provided by B. R. Conklin, University of California, San Francisco) using Lipofectamine 2000. rM1, hM1, rM3, hM3, rM5, and hM5 cells were grown in Ham's F-12 medium containing 10% heat-inactivated fetal bovine serum (FBS), 20 mM HEPES, and 50 μg/mL G418 sulfate. rM2-Gqi5, hM2-Gqi5, and hM4-Gqi5 cells were grown in the same medium also containing 500 μg/mL Hygromycin B. Stable rM4-Gqi5 cells were grown in DMEM containing 10% heat-inactivated FBS, 20 mM HEPES, 400 μg/mL G418 sulfate, and 500 μg/mL Hygromycin B.
(§2) For high throughput measurement of agonist-evoked increases in intracellular calcium, CHO-K1 cells stably expressing muscarinic receptors were plated in growth medium lacking G418 and hygromycin at 15,000 cells/20 μL/well in Greiner 384-well black-walled, tissue culture (TC)-treated, clear-bottom plates (VWR). Cells were incubated overnight at 37° C. and 5% CO2. The next day, cells were washed using an ELX 405 (BioTek) with four washes (80 μL) of assay buffer then aspirated to 20 μL. Next, 20 μL of 16 μM Fluo-4/acetoxymethyl ester (Invitrogen, Carlsbad, Calif.) prepared as a 2.3 mM stock in DMSO and mixed in a 1:1 ratio with 10% (w/v) Pluronic F-127 and diluted in assay buffer was added to the wells and the cell plates were incubated for 50 min at 37° C. and 5% CO2. Dye was removed by washing with the ELX 405 (four 80 μL washes of assay buffer) then aspirated to 20 μL. Compound master plates were formatted in an 11 point CRC format (1:3 dilutions) in 100% DMSO with a starting concentration of 10 mM using the BRAVO liquid handler (Agilent). Test compound CRCs were then transferred to daughter plates (240 nL) using the Echo acoustic plate reformatter (Labcyte, Sunnyvale, Calif.) and then diluted into assay buffer (40 μL) to a 2× stock using a Thermo Fisher Combi (Thermo Fisher Scientific, Waltham, Mass.).
(§3) Calcium flux was measured using the Functional Drug Screening System (FDSS) 6000 (Hamamatsu Corporation, Tokyo, Japan) as an increase in the fluorescent static ratio. Compounds were applied to cells (20 μL, 2×) using the automated system of the FDSS 6000 at 4 s into the 300 s protocol and the data were collected at 1 Hz. At 144 s into the 300 s protocol, 10 μL of an EC20 concentration of the muscarinic receptor agonist acetylcholine was added (5×), followed by the addition of 12 μL an EC80 concentration of acetylcholine at the 230 s time point (5×). Agonist activity was analyzed as a concentration-dependent increase in calcium mobilization upon compound addition. Emax values for agonist activity are expressed relative to the maximum for acetylcholine. Positive allosteric modulator activity was analyzed as a concentration-dependent increase in the EC20 acetylcholine response. Antagonist activity was analyzed as a concentration-dependent decrease in the EC80 acetylcholine response. Concentration-response curves were generated using a four-parameter logistical equation in XLfit curve fitting software (IDBS, Bridgewater, N.J.) for Excel (Microsoft, Redmond, Wash.) or Prism (GraphPad Software, Inc., San Diego, Calif.).

human mAChR M1 [2] = target: T1, human mAChR M1; assay: mAChR M1 cell-based functional assay (calcium mobilization), PAM activity: increase in the EC20 acetylcholine response; details: CHO-K1 cells expressing hM1; calcium flux (Fluo-4); potentiation of EC20 acetylcholine response
Text: as §1, §2, §3

SMILES | EC50 (human mAChR M1 [1]) | Emax (human mAChR M1 [1]) | EC50 (human mAChR M1 [2]) | Emax (human mAChR M1 [2])
Cc1c(Cc2ccc(-n3cccn3)cc2)cc(C(=O)NC2CC3(COC3)C2)nc1-c1ccn(C)n1 [Compound 58, 4-(4-(1H-pyrazol-1-yl)benzyl)-5-methyl-6-(1-methyl-1H-pyrazol-3-yl)-N-(2-oxaspiro[3.3]heptan-6-yl)picolinamide] | > 10 µM | < 5% | 6 µM | 83%
Cn1cc(-c2ccc(Cc3cc(C(=O)N[C@H]4CCCC[C@@H]4O)nc(-c4ccn(C)n4)c3)cn2)cn1 [Compound 3, N-((1S,2S)-2-hydroxycyclohexyl)-6-(1-methyl-1H-pyrazol-3-yl)-4-((6-(1-methyl-1H-pyrazol-4-yl)pyridin-3-yl)methyl)picolinamide] | > 10 µM | < 5% | 4 µM | 90%
Cc1nc(-c2ccc(Cc3cc(C(=O)N[C@H]4CCOC[C@@H]4O)nc(-n4cccn4)c3)cc2)co1 [Compound 19, N-((3R,4S)-3-hydroxytetrahydro-2H-pyran-4-yl)-4-(4-(2-methyloxazol-4-yl)benzyl)-6-(1H-pyrazol-1-yl)picolinamide] | > 10 µM | < 5% | 1.97 µM | 88%
Cc1c(Cc2ccc(-n3cccn3)cc2)cc(C(=O)NCC2CCOCC2)nc1-c1ccn(C)n1 [Compound 61, 4-(4-(1H-pyrazol-1-yl)benzyl)-5-methyl-6-(1-methyl-1H-pyrazol-3-yl)-N-((tetrahydro-2H-pyran-4-yl)methyl)picolinamide] | > 10 µM | < 5% | – | 64%
Cc1nc(-c2ccc(Cc3cc(C(=O)NC4CCOCC4)nc(-n4cccn4)c3)cc2)co1 [Compound 27, 4-(4-(2-methyloxazol-4-yl)benzyl)-6-(1H-pyrazol-1-yl)-N-(tetrahydro-2H-pyran-4-yl)picolinamide] | > 10 µM | 6% | – | 62%
Cn1ccc(-c2ccc(Cc3cc(C(=O)NC4CC5(COC5)C4)nc(-c4ccn(C)n4)c3)cc2)n1 [Compound 36, 6-(1-methyl-1H-pyrazol-3-yl)-4-(4-(1-methyl-1H-pyrazol-3-yl)benzyl)-N-(2-oxaspiro[3.3]heptan-6-yl)picolinamide] | > 10 µM | < 5% | 3.71 µM | 38%
Cc1c(Cc2ccc(-c3ccn(C)n3)nc2)cc(C(=O)NC2CCOCC2)nc1-n1cccn1 [Compound 49, 5-methyl-4-((6-(1-methyl-1H-pyrazol-3-yl)pyridin-3-yl)methyl)-6-(1H-pyrazol-1-yl)-N-(tetrahydro-2H-pyran-4-yl)picolinamide] | > 10 µM | < 5% | – | 63%
Cc1c(Cc2ccc(-c3ccn(C)n3)cc2)cc(C(=O)N[C@H]2CCC[C@@H]2O)nc1-n1cccn1 [Compound 43, N-((1S,2S)-2-hydroxycyclopentyl)-5-methyl-4-(4-(1-methyl-1H-pyrazol-3-yl)benzyl)-6-(1H-pyrazol-1-yl)picolinamide] | ≥ 10 µM | 14% | 1.3 µM | 85%
Cn1ccc(-c2ccc(Cc3cc(C(=O)N[C@H]4CCCC[C@@H]4O)nc(-c4ccn(C)n4)c3)cc2)n1 [Compound 34, N-((1S,2S)-2-hydroxycyclohexyl)-6-(1-methyl-1H-pyrazol-3-yl)-4-(4-(1-methyl-1H-pyrazol-3-yl)benzyl)picolinamide] | > 10 µM | < 5% | 2.02 µM | 63%
Cc1c(Cc2ccc(-n3cccn3)cc2)cc(C(=O)N[C@H]2CCCC[C@@H]2O)nc1-c1ccn(C)n1 [Compound 56, 4-(4-(1H-pyrazol-1-yl)benzyl)-N-((1S,2S)-2-hydroxycyclohexyl)-5-methyl-6-(1-methyl-1H-pyrazol-3-yl)picolinamide] | > 10 µM | < 5% | 0.906 µM | 81%
Cc1c(Cc2ccc(-n3cccn3)cc2)cc(C(=O)N[C@H]2CC[C@@H]2O)nc1-c1ccn(C)n1 [Compound 60, 4-(4-(1H-pyrazol-1-yl)benzyl)-N-((1S,2S)-2-hydroxycyclobutyl)-5-methyl-6-(1-methyl-1H-pyrazol-3-yl)picolinamide] | > 10 µM | < 5% | – | 79%
Cn1ccc(-c2ccc(Cc3cc(C(=O)N[C@H]4CC[C@@H]4O)nc(-n4cccn4)c3)cc2)n1 [Compound 32, N-((1S,2S)-2-hydroxycyclobutyl)-4-(4-(1-methyl-1H-pyrazol-3-yl)benzyl)-6-(1H-pyrazol-1-yl)picolinamide] | > 10 µM | < 5% | – | 46%
Cn1cc(-c2ccc(Cc3cc(C(=O)NC4CC5(COC5)C4)nc(-c4ccn(C)n4)c3)cn2)cn1 [Compound 5, 6-(1-methyl-1H-pyrazol-3-yl)-4-((6-(1-methyl-1H-pyrazol-4-yl)pyridin-3-yl)methyl)-N-(2-oxaspiro[3.3]heptan-6-yl)picolinamide] | > 10 µM | < 5% | – | 52%
Cc1nc(-c2ccc(Cc3cc(C(=O)N[C@H]4CCC[C@@H]4O)nc(-n4cccn4)c3)cc2)co1 [Compound 24, N-((1S,2S)-2-hydroxycyclopentyl)-4-(4-(2-methyloxazol-4-yl)benzyl)-6-(1H-pyrazol-1-yl)picolinamide] | > 10 µM | < 5% | 4.91 µM | 78%
Cn1ccc(-c2ccc(Cc3cc(C(=O)N[C@H]4CCOC[C@@H]4O)nc(-n4cccn4)c3)cc2)n1 [Compound 28, N-((3R,4S)-3-hydroxytetrahydro-2H-pyran-4-yl)-4-(4-(1-methyl-1H-pyrazol-3-yl)benzyl)-6-(1H-pyrazol-1-yl)picolinamide] | > 10 µM | 7% | 1.07 µM | 78%
Cn1cc(-c2ccc(Cc3cc(C(=O)NC[C@@H]4CCCO4)nc(-c4ccn(C)n4)c3)cn2)cn1 [Compound 7, (S)-6-(1-methyl-1H-pyrazol-3-yl)-4-((6-(1-methyl-1H-pyrazol-4-yl)pyridin-3-yl)methyl)-N-((tetrahydrofuran-2-yl)methyl)picolinamide] | > 10 µM | < 5% | – | 38%
Cc1c(Cc2ccc(-c3ccn(C)n3)cc2)cc(C(=O)NC[C@H]2CCCO2)nc1-c1ccn(C)n1 [Compound 16, (R)-5-methyl-6-(1-methyl-1H-pyrazol-3-yl)-4-(4-(1-methyl-1H-pyrazol-3-yl)benzyl)-N-((tetrahydrofuran-2-yl)methyl)picolinamide] | > 10 µM | < 5% | – | 62%
